Test results from the supplement of paper PMC11368000.

Tests used:
Details in all cases: exposure time: 90 min
[1] = test system: 1516 (donor line of iPSC-derived cardiomyocytes); test: POD (EC10) for decrease in total cell number (cytotoxicity) vs vehicle; higher = less potent (higher point of departure)
Description: (§1)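 Human iPSC-derived cardiomyocytes from 16 donors were exposed for 90 min at 37 °C to each PFAS at 0.1, 1, 10 and 100 µM in 0.5% DMSO, 384-well plates. Kinetic Ca2+ flux (FLIPR) and Hoechst nuclei counts were normalised to vehicle wells and fitted with a hierarchical Bayesian Hill model to give donor-specific PODs: EC05 for beat-rate increase or decrease and for decay-to-rise ratio increase (QT proxy), EC95 for peak-frequency loss (asystole), EC10 for total cell number loss. 0.03 µM is the lower bound.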

[2] = test system: 1309 (donor line of iPSC-derived cardiomyocytes); test: as above
Description: as §1

[3] = test system: 20084 (donor line of iPSC-derived cardiomyocytes); test: as above
Description: as §1

[4] = test system: 30171 (donor line of iPSC-derived cardiomyocytes); test: as above
Description: as §1

[5] = test system: 20032 (donor line of iPSC-derived cardiomyocytes); test: as above
Description: as §1

[6] = test system: 1392 (donor line of iPSC-derived cardiomyocytes); test: as above
Description: as §1

[7] = test system: 1518 (donor line of iPSC-derived cardiomyocytes); test: as above
Description: as §1

[8] = test system: 11235 (donor line of iPSC-derived cardiomyocytes); test: as above
Description: as §1

[9] = test system: 30145 (donor line of iPSC-derived cardiomyocytes); test: as above
Description: as §1

[10] = test system: 1531 (donor line of iPSC-derived cardiomyocytes); test: as above
Description: as §1

[11] = test system: 1565 (donor line of iPSC-derived cardiomyocytes); test: as above
Description: as §1

[12] = test system: 1535 (donor line of iPSC-derived cardiomyocytes); test: as above
Description: as §1

[13] = test system: 1083 (donor line of iPSC-derived cardiomyocytes); test: as above
Description: as §1

[14] = test system: 1118 (donor line of iPSC-derived cardiomyocytes); test: as above
Description: as §1

[15] = test system: 1434 (donor line of iPSC-derived cardiomyocytes); test: as above
Description: as §1

[16] = test system: 1368 (donor line of iPSC-derived cardiomyocytes); test: as above
Description: as §1

[17] = test system: 30171; test: POD (EC95) for loss of peak frequency (asystole) vs vehicle; higher = less potent (higher point of departure)
Description: as §1

[18] = test system: 1518; test: as above
Description: as §1

[19] = test system: 1531; test: as above
Description: as §1

[20] = test system: 1083; test: as above
Description: as §1

| Compound | POD vs vehicle [1] [µM] | POD vs vehicle [2] [µM] | POD vs vehicle [3] [µM] | POD vs vehicle [4] [µM] | POD vs vehicle [5] [µM] | POD vs vehicle [6] [µM] | POD vs vehicle [7] [µM] | POD vs vehicle [8] [µM] | POD vs vehicle [9] [µM] | POD vs vehicle [10] [µM] | POD vs vehicle [11] [µM] | POD vs vehicle [12] [µM] | POD vs vehicle [13] [µM] | POD vs vehicle [14] [µM] | POD vs vehicle [15] [µM] | POD vs vehicle [16] [µM] | POD vs vehicle [17] [µM] | POD vs vehicle [18] [µM] | POD vs vehicle [19] [µM] | POD vs vehicle [20] [µM] |
| --- | --- | --- | --- | --- | --- | --- | --- | --- | --- | --- | --- | --- | --- | --- | --- | --- | --- | --- | --- | --- |
| O=C(O)C(F)(F)C(F)(F)C(F)(F)OC(F)(F)F [Perfluoro(4-methoxybutanoic)_acid] | > 100 | > 100 | > 100 | > 100 | > 100 | > 100 | > 100 | > 100 | > 100 | > 100 | > 100 | > 100 | > 100 | > 100 | > 100 | > 100 | > 100 | > 100 | > 100 | > 100 |
| OCC(F)(F)C(F)(F)C(F)(F)C(F)(F)C(F)(F)C(F)F [Dodecafluoroheptanol] | > 100 | > 100 | > 100 | 46.4 | 58.4 | > 100 | > 100 | 85.3 | > 100 | > 100 | > 100 | > 100 | > 100 | 95.5 | > 100 | > 100 | 51.8 | 38.1 | 42.6 | 38.1 |
| O=S(=O)(O)CCC(F)(F)C(F)(F)C(F)(F)C(F)(F)C(F)(F)C(F)(F)C(F)(F)C(F)(F)F [8:2 Fluorotelomer sulfonic acid] | > 100 | > 100 | > 100 | > 100 | > 100 | > 100 | > 100 | > 100 | > 100 | > 100 | > 100 | > 100 | > 100 | > 100 | > 100 | > 100 | > 100 | > 100 | 16.5 | > 100 |
| OCCC(F)(F)C(F)(F)C(F)(F)C(F)(F)C(F)(F)C(F)(F)F [6:2 Fluorotelomer alcohol] | > 100 | > 100 | > 100 | > 100 | > 100 | > 100 | > 100 | > 100 | > 100 | > 100 | > 100 | > 100 | > 100 | > 100 | > 100 | > 100 | > 100 | > 100 | > 100 | > 100 |
